The results in this text go back to article PMC10291553, “Exploring Structure–Activity Relationships in Photodynamic Therapy Anticancer Agents Based on Ir(III)-COUPY Conjugates” (Journal of Medicinal Chemistry, 2023).

Assay [1] deals with HeLa. Description: Photo- and cytotoxic activity determination (MTT), HeLa cells. It is filed as cell-based. The conditions noted are these: normoxia; for IC50: Homo sapiens, HeLa; for HeLa PI (phototherapeutic index), IC50 dark/IC50 irradiated: dark tested up to 100 μM. The source says:
(§1) Having shown that the Ir(III)-COUPY conjugates can sensitize both type I and II ROS through spectroscopic techniques and readily internalize into living cells, their photocytotoxicity was screened in various cancer cell lines. This screening included two representative melanoma cell lines (human A375 and […] human SK-MEL-28) and cancer cells with resistance to the clinical drug cisplatin. For the latter, both sensitive and cisplatin-resistant ovarian cancer cells (A2780 and A2780cis) as well as HeLa cells, which also show a degree of chemoresistance to the platinum anticancer drug in vitro,[54] were used. For the determination of dark and light cytotoxicity, dose–response curves were assayed from both conditions to provide the correspondent IC50 values, which correspond to the concentration needed for inhibition of cell growth by 50%. Phototherapeutic index (PI) was calculated as the ratio of dark to light IC50 value for each compound.
(§2) A375, HeLa, and SK-MEL-28 cells were cultured in Dulbecco’s modified Eagle medium (DMEM) supplemented with 10% FBS, L-glutamine, and 1% penicillin–streptomycin. A2780 and A2780cis cells were grown in RPMI-1640 cell medium supplemented with 10% fetal bovine serum (FBS) and 2 mM L-glutamine. Acquired resistance to cisplatin in the A2780cis cell line was maintained by adding cisplatin 1 μM to culture medium every second passage. Cells were cultured in a humidified incubator at 310 K with 5% CO2 atmosphere and subcultured two or three times a week with appropriate densities and were confirmed to be mycoplasma-free using a standard Hoechst DNA staining method.
(§3) A2780, A2780cis, HeLa, A375, and SK-MEL-28 cells were maintained at logarithmic growth-phase and cultured in 96-well plates at a density of 5000 cells/well in complete medium for 24 h at 310 K, 5% CO2 in a humidified incubator. For hypoxia experiments, a hypoxia condition was set up by Tissue Culture Service at University of Murcia using nitrogen (N2) to displace O2 down to a minimum of 2% in a Forma Steri-Cycle i160 incubator (Thermo Fisher Scientific). Serial dilutions of the compounds were added at the final concentrations in the range of 0–100 μM in a final volume of 100 μL per well. A light-based treatment schedule was performed as follows: 1 h incubation with the compounds in the dark, followed by 1 h incubation under irradiation conditions by placing the Photoreactor EXPO-LED from Luzchem (Canada) fitted with green lamps (final light intensity applied of 1.5 mW/cm^2 at λmax = 520 nm) inside the CO2 incubator. All the cell culture plates subjected to light irradiation included untreated controls to verify that cell viability was not affected by light. Then, treatment-containing media was removed, and fresh media was added for a 48 h cell recovery period; the temperature throughout the experiment remained at 310 K. Dark control samples were placed in the same dark conditions and then kept incubated for 1 h in the dark in the humidified CO2 incubator. Medium was then aspirated by suction, cells were loaded with 50 μL of MTT solution (1 mg/mL) for additional 4 h and then removed, and 50 μL of DMSO was added to solubilize the purple formazan crystals formed in active cells. The absorbance was measured at 570 nm using a microplate reader (FLUOstar Omega), and the IC50 values were calculated based on the inhibitory rate curves using the following equation [drawing 4] 4 where I represents the percentage inhibition of viability observed, Imax is the maximal inhibitory effect, IC50 is the concentration that inhibits 50% of maximal growth, C is the concentration of the treatment, and n is the slope of the semi-logarithmic dose–response sigmoidal curves. The non-linear fitting was performed using SigmaPlot 14.0 software. All experiments were performed in three independent studies with n = 3 replicates per concentration level. For a detailed phototoxicity procedure, ref ([43]) includes technical explanations.

In assay [2] the test system is SK-MEL-28. The assay can be described thus: Photo- and cytotoxic activity determination (MTT), SK-MEL-28 cells. Particulars: normoxia; for IC50: Homo sapiens, SK-MEL-28; for SK-MEL-28 PI (phototherapeutic index), IC50 dark/IC50 irradiated: dark tested up to 100 μM. In kind it is cell-based, human.
Text: as §1, §2, §3

In assay [3] the test system is A2780cis cells. The assay can be described thus: Photo- and cytotoxic activity determination (MTT), A2780cis cells, normoxia or hypoxia. In kind it is cell-based. The conditions noted are these: for inhibition at 250 µM / Hypoxia PI (phototherapeutic index) / IC50 / Normoxia PI (phototherapeutic index): A2780cis; for inhibition at 250 µM: 2 h incubation in the dark, 48 h drug-free recovery; for Hypoxia PI (phototherapeutic index) / Normoxia PI (phototherapeutic index): dark tested up to 250 μM; for A2780cis PI (phototherapeutic index), IC50 dark/IC50 irradiated: dark tested up to 100 μM.
Text: as §1, §2
as §3, with “Serial dilutions of the compounds were added at the final concentrations in the range of 0–100 μM in a final volume of 100 μL per well.” left out

Assay [4] has as its system A375. The assay can be described thus: Photo- and cytotoxic activity determination (MTT), A375 cells. It is filed as cell-based, human. Particulars: normoxia; for IC50: Homo sapiens, A-375, 48 h drug-free medium; for A375 PI (phototherapeutic index), IC50 dark/IC50 irradiated: 520 nm, dark tested up to 100 μM.
Text: as §1, §2, §3

Setting [5] is: 1 h incubation + 1 h green light 520 nm, 1.5 mW cm^–2, 48 h drug-free medium, read-out: HeLa light IC50.
The mark [6] stands for this setting: kept in the dark, 2 h treatment, 48 h drug-free medium, read-out: HeLa dark IC50.
Setting [7] is: 1 h incubation + 1 h green light 520 nm, 1.5 mW cm^–2, 48 h drug-free medium, read-out: SK-MEL-28 light IC50.
[8] abbreviates: kept in the dark, 2 h treatment, 48 h drug-free medium, read-out: SK-MEL-28 dark IC50.
[9] abbreviates: hypoxia, read-out: Partial inhibition (% of cell growth inhibition with respect to untreated controls), Hypoxia.
Setting [10] is: normoxia, read-out: Partial inhibition (% of cell growth inhibition with respect to untreated controls), Normoxia.
The mark [11] stands for this setting: hypoxia 2% O2, dark, tested up to 250 μM, read-out: Hypoxia Dark IC50.
The mark [12] stands for this setting: hypoxia, 520 nm, read-out: A2780cis Light 520 nm IC50 (microM) Hypoxia.
Where [13] appears, read: hypoxia, dark, read-out: A2780cis Dark IC50 (microM) Hypoxia.
The mark [14] stands for this setting: normoxia 21% O2, dark, tested up to 250 μM, read-out: Normoxia Dark IC50.
[15] abbreviates: normoxia, 1 h incubation + 1 h green light 520 nm, 1.5 mW cm^–2, 48 h drug-free medium, read-out: A2780cis light IC50.
Where [16] appears, read: normoxia, dark, up to 250 microM, read-out: A2780cis Dark IC50 (microM) Normoxia.
Setting [17] is: normoxia, kept in the dark, tested up to 100 μM, 2 h treatment, 48 h drug-free medium, read-out: A2780cis dark IC50.
The mark [18] stands for this setting: 1 h incubation + 1 h green light 520 nm, 1.5 mW cm^–2, read-out: A375 light IC50.
[19] abbreviates: kept in the dark, 2 h treatment, read-out: A375 dark IC50.

Where two headings read alike, the source gives them in different places. Some results are limits rather than exact numbers.

A word on the IC50: it is the concentration that gives 50% inhibition. A word on the inhibition: it is the change of the read-out against control, counted positive when it falls. Turning to `CCN(CC)c1ccc2c(c1)O/C(=C(/C#N)c1cc[n+](C)cc1)C=C2C` [1a], the IC50 in assay [1] (setting [5]) is 5.8 ± 0.4 µM; in assay [1] (setting [6]), more than 100 µM; in assay [2] (setting [7]), 1.2 ± 0.1 µM; in assay [2] (setting [8]), more than 100 µM; in assay [3] (setting [11]), more than 250 µM; in assay [3] (setting [12]), 2.5 ± 0.2 µM. In addition, the IC50 was more than 250 µM in assay [3] (setting [13]); more than 250 µM in assay [3] (setting [14]); 2.1 ± 0.2 µM in assay [3] (setting [15]); more than 250 µM in assay [3] (setting [16]); more than 100 µM in assay [3] (setting [17]); 1.1 ± 0.1 µM in assay [4] (setting [18]). In addition, the IC50 in assay [4] (setting [19]) is more than 100 µM. In assay [1] (520 nm), the “HeLa PI (phototherapeutic index), IC50 dark/IC50 irradiated” value is reported as more than 17. In addition, the “SK-MEL-28 PI (phototherapeutic index), IC50 dark/IC50 irradiated” value in assay [2] (520 nm) is recorded as more than 86. Besides, the inhibition at 250 µM in assay [3] (setting [9]) is 2.1 ± 0.4%; in assay [3] (setting [10]) it was 3.5 ± 0.9%. In assay [3] (hypoxia 2% O2, 520 nm), the “Hypoxia PI (phototherapeutic index)” value is listed as more than 100.0. Moreover, the “Normoxia PI (phototherapeutic index)” value in assay [3] (normoxia 21% O2, 520 nm) is recorded as more than 119.1. For the same compound, in assay [3] (normoxia, 520 nm), the “A2780cis PI (phototherapeutic index), IC50 dark/IC50 irradiated” value is more than 48. For the same compound, the “A375 PI (phototherapeutic index), IC50 dark/IC50 irradiated” value (“A375 PI (phototherapeutic index)” for short) in assay [4] is more than 89.

With `CC1=C/C(=C(\C#N)c2cc[n+](C)cc2)Oc2ccccc21` [1b], the IC50 was more than 100 µM in assay [1] (520 nm, read-out: HeLa Light 520 nm IC50 (microM) Normoxia); more than 100 µM in assay [1] (setting [5]); more than 100 µM in assay [1] (dark, read-out: HeLa Dark IC50 (microM) Normoxia); more than 100 µM in assay [1] (setting [6]); more than 100 µM in assay [2] (520 nm, read-out: SK-MEL-28 Light 520 nm IC50 (microM) Normoxia); more than 100 µM in assay [2] (setting [7]). Further, the IC50 was more than 100 µM in assay [2] (dark, read-out: SK-MEL-28 Dark IC50 (microM) Normoxia); more than 100 µM in assay [2] (setting [8]); more than 250 µM in assay [3] (hypoxia 2% O2, 1 h incubation + 1 h green light 520 nm, 48 h drug-free, read-out: Hypoxia 520 nm IC50); more than 250 µM in assay [3] (setting [11]); more than 250 µM in assay [3] (setting [12]); more than 250 µM in assay [3] (setting [13]). Besides, the IC50 is more than 250 µM in assay [3] (normoxia 21% O2, 1 h incubation + 1 h green light 520 nm, 48 h drug-free, read-out: Normoxia 520 nm IC50); more than 250 µM in assay [3] (setting [14]); more than 250 µM in assay [3] (normoxia, 520 nm, read-out: A2780cis Light 520 nm IC50 (microM) Normoxia); more than 250 µM in assay [3] (setting [16]); 10 ± 2 µM in assay [4] (setting [18]); more than 100 µM in assay [4] (setting [19]). For the same compound, the inhibition at 250 µM worked out at 4.5 ± 0.6% in assay [3] (setting [9]) and 24 ± 3% in assay [3] (setting [10]). The “A375 PI (phototherapeutic index)” value in assay [4] is on record as more than 10.

On to `CC1=C/C(=C(\C#N)c2cc[n+](C)cc2)Oc2c1cc1c3c2CCCN3CCC1` [1c], for which the IC50 in assay [1] (setting [5]) stood at 1.1 ± 0.8 µM; in assay [1] (setting [6]), 26 ± 4 µM; in assay [2] (setting [7]), 0.2 ± 0.01 µM; in assay [2] (setting [8]) it was 12 ± 1 µM; in assay [3] (setting [12]) it was 0.6 ± 0.1 µM; in assay [3] (setting [13]), 20 ± 2 µM. In addition, the IC50 in assay [3] (setting [15]) amounted to 0.15 ± 0.04 µM; in assay [3] (setting [17]), 15 ± 2 µM; in assay [4] (setting [18]), 0.31 ± 0.02 µM; in assay [4] (setting [19]), 9.9 ± 0.5 µM. The “HeLa PI (phototherapeutic index), IC50 dark/IC50 irradiated” value in assay [1] (520 nm) came to 24. The “SK-MEL-28 PI (phototherapeutic index), IC50 dark/IC50 irradiated” value in assay [2] (520 nm) is on record as 60. Further, the inhibition at 250 µM in assay [3] (setting [9]) and in assay [3] (setting [10]) was 100% in each case. The “Hypoxia PI (phototherapeutic index)” value in assay [3] (hypoxia 2% O2, 520 nm) turned out to be 36.4. The “Normoxia PI (phototherapeutic index)” value in assay [3] (normoxia 21% O2, 520 nm) is on record as 100.0. Moreover, in assay [3] (normoxia, 520 nm), the “A2780cis PI (phototherapeutic index), IC50 dark/IC50 irradiated” value amounted to 100. Further, the “A375 PI (phototherapeutic index)” value in assay [4] came to 32.
